Experimental findings from patent US9433663B2, “Mobilization of hematopoietic stem cells” (Children's Hospital Medical Center, priority 2008, dated 2016) are described below.

For one test, the system named is 32D myeloid progenitors. Kind of test: FACS analysis of F-actin reorganization in 32D progenitors. The test is classed as cell-based, murine. Particulars: dose-dependent pattern. The source says: To shed light on potential roles of CASIN in HSPC mobilization, the effects of CASIN on Cdc42-related cellular functions was studied, including adhesion, migration, and F-actin polymerization of progenitor cells in 32D myeloid progenitors. […] SDF-1α stimulation causes a reorganization of F-actin into a cortical ring around the cells. […] Thirdly, to gain further insight into cellular specificity and efficacy of CASIN, and also to rule out possible toxic effects by CASIN, Cdc42-involved BM progenitor cell functions were examined, including proliferation, adhesion, migration, and F-actin polymerization, in Cdc42^+/+ cells in parallel with Cdc42^−/− cells. In line with additional studies in a Cdc42 conditional knockout mouse model as described herein, Cdc42^−/− LDBM cells have increased CFU-forming progenitors compared to those of Cdc42^+/+.
On the technique in general: A flow cytometer gives signals particle by particle.

A further test concerns LT-HSC. The test can be described thus: serial transplantation of CASIN-mobilized PB into NOD/SCID mice. In kind it is in vivo. As to the method:
Whether CASIN administration can induce mobilization of HSC/Ps to peripheral blood of C57Bl/6 mice, mimicking the phenotype observed in Cdc42 conditional knockout mice, was evaluated. First of all, mobilization of hematopoietic progenitor cells was examined by CFU-C assays functionally (FIG. 3a). […] Secondarily, to further explore the ability of CASIN to mobilize LT-HSC which is crucial for long-term repopulation of the mobilized cells, serial transplantations were carried out, where 20 million PB from CASIN-mobilized C57Bl/6 mice was transplanted into primary recipient of NOD/SCID mice, and subsequent secondary and tertiary transplants were finished as well using prior BMs (FIG. 3c). Donor chimerisms were assessed by using H2K^b congenic marker which is positive for donors of C57Bl/6 strain and negative for recipients of NOD/SCID strain. […] Therefore, the studies show CASIN can efficiently mobilize colony-forming hematopoietic progenitors and LT-HSCs with self-renewal and multi-lineage differentiation capacity. Thirdly, to further investigate the potential of CASIN to vacate the BM niche after mobilization, six-color staining of the BM cells was performed from C57Bl/6 mice with or without CASIN treatment followed by FACS analysis. […] Therefore, a transient decrease in BM and a concomitant increase in peripheral organs of HSCs would be beneficial to facilitating the subsequent HSC transplantation.
To functionally define the LT-HSC, serial transplantations of mobilized PB from C57Bl/6 mice into sublethally irradiated NOD/SCID mice were carried out. Briefly, 2×10^7 PB cells were harvested 40 hrs after CASIN mobilization, and subsequently transplanted to a sublethally irradiated primary recipient. Chimerisms of donor-derived cells in the BM and PB were monitored over time by FACS analysis of the congenic marker H2K^b. Subsequent secondary and tertiary transplantations were performed using prior BM cells, and monitored by FACS analysis as well.

Test [1] concerns human CD34^+ umbilical cord blood cells. Kind of test: migration of human CD34+ HCB cells. The test is classed as cell-based. Particulars: 5 μM. As to the method: FIG. 4C. relative migration of human CD34^+ cord blood cells in the presence of CASIN at dose of 5 μM in comparison to that of control.
To begin to study potential utility of CASIN in human hematopoietic stem cell mobilization, a series of cellular assays were carried out to determine the effects on human CD34^+ umbilical cord blood cells (HCBs). […] The effects of CASIN on human hematopoietic cell mobilization was therefore tested using a well established preclinical in vivo model (NOD/SCID-Hcb) of human hematopoietic function, where fresh CD34^+ hCB cells were transplanted into sub-lethally irradiated NOD/SCIDs by intrafemoral injection, and repopulated and maintained human hematopoietic reconstitution in the bone marrow of NOD/SCID recipient mice (FIG. 9b, FIG. 11) (Larochelle, A. et al. Nat Med 2, 1329-1337 (1996); Bhatia, M., et al. Proc Natl Acad Sci USA 94, 5320-5325 (1997)). Intravenous injections of CASIN were applied when human cells were well engrafted in the NOD/SCID recipients.

The test system of another test is PAK1, WASP, WAVE, ROCK. Kind of test: Example 7 phosphorylation of downstream effectors by western blot. The test is classed as cell-based, murine LDBM and human HCB cells. Particulars: HCB and LDBM cells. As to the method:
To exclude the inhibitory effect of CASIN on other Rac isoforms, Rho GTPases, and Ras, broader effector pull-down experiments are performed on these possible candidates with gradient doses of CASIN in LDBM and HCB cells as previously described. In addition, CASIN has been indicated as a noncovalent and reversible inhibitor in Xenopus egg extract. To confirm it, reversibility is monitored in this set of effector pull-down experiments. Four treatment groups are divided for both LDBM and HCB cells: (1) Serum starvation 20 h; (2) Serum starvation 20 h+growth factors stimulation; (3) Serum starvation 20 h+CASIN treatment (doses: 1, 2.5, 5, and 10 μM) 3 h+growth factor stimulation; (4) Serum starvation 20 h+CASIN treatment (doses: 1, 2.5, 5, and 10 μM) 3 h+wash the cells, and culture for another 3 h for recovery+growth factors stimulation. […] Bound proteins are analyzed by immunoblotting with respective antibodies (BD Biosciences). Furthermore, changes of downstream targets of Cdc42, Rac, and Rho under the four treatment groups are assessed. Phosphorylation status of PAK1, WASP (effectors of Cdc42), WAVE (effector of Rac), and ROCK (effector of Rho) are monitored by western blots using respective antibodies.

Another test has as its target Cdc42 (Mus musculus, UniProt P60766). Kind of test: Rho GTPase pull-down of BM cells after in vivo administration. The arrangement: from tissue; host or cells: bone marrow (LDBM) cells of C57Bl/6 mice. Particulars: C57Bl/6 mice; FIG. 8a legend: BM cells harvested 20 mins after CASIN administration. As to the method: FIG. 8A. CASIN inhibited Cdc42 activity in BM cells harvested from C57Bl/6 mice 20 mins after CASIN administration.
Whether CASIN administration can induce mobilization of HSC/Ps to peripheral blood of C57Bl/6 mice, mimicking the phenotype observed in Cdc42 conditional knockout mice, was evaluated. First of all, mobilization of hematopoietic progenitor cells was examined by CFU-C assays functionally (FIG. 3a). […] Secondarily, to further explore the ability of CASIN to mobilize LT-HSC which is crucial for long-term repopulation of the mobilized cells, serial transplantations were carried out, where 20 million PB from CASIN-mobilized C57Bl/6 mice was transplanted into primary recipient of NOD/SCID mice, and subsequent secondary and tertiary transplants were finished as well using prior BMs (FIG. 3c). Donor chimerisms were assessed by using H2K^b congenic marker which is positive for donors of C57Bl/6 strain and negative for recipients of NOD/SCID strain. […] Therefore, the studies show CASIN can efficiently mobilize colony-forming hematopoietic progenitors and LT-HSCs with self-renewal and multi-lineage differentiation capacity. Thirdly, to further investigate the potential of CASIN to vacate the BM niche after mobilization, six-color staining of the BM cells was performed from C57Bl/6 mice with or without CASIN treatment followed by FACS analysis. […]

Sequence of Cdc42 (P60766 whole entry): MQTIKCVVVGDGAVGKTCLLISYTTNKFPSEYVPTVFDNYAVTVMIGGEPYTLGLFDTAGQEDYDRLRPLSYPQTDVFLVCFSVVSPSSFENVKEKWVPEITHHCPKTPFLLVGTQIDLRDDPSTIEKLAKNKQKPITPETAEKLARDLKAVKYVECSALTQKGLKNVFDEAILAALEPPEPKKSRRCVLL

Turning to `OCCNC1CCCc2c1[nH]c1ccc(-c3ccccc3)cc21` (centres unmarked) [CASIN], the “F-actin reorganization stimulated by SDF1α” value with 32D myeloid progenitors is listed as “significantly dampened”. Moreover, the “PB reconstitution of donor-derived cells in the primary recipient” value with LT-HSC (1-3 mo post transplantation of PB from CASIN-mobilized mice) is recorded as “reconstituted considerable percentages of total PB”. Also, the “multi-lineage differentiation of engrafted donor cells” value with LT-HSC (BM and PB of the primary recipients) was “had undergone multi-lineage differentiations”. Besides, in the test with LT-HSC (primary through tertiary transplantation), the “engraftment of donor-derived cells in BM” value is recorded as “engraftment of donor-derived cells was detected”. The “migration activity of human progenitors” value in test [1] is listed as “significantly dampened”. For the same molecule, in the test with PAK1, WASP, WAVE, ROCK, the “phosphorylation of PAK1 and WASP” value was “inhibit”; the “phosphorylation of WAVE and ROCK” value was “without affecting”. Besides, the “Cdc42 activity in LDBM cells after in vivo administration” value at Cdc42 is on record as “really down”.
